Test results from patent US9593146B2, “CD44v6-derived peptides for treating metastasizing cancer” (AMCURE GMBH, priority 2012, dated 2017).

Legend:
Met and ERK = test: HGF induced activation of Met and ERK in L3.6pl cells (Western blot); format: cell-based, human; settings: L3.6pl cells, peptide prior to induction with 10 ng/ml HGF
L3.6pl cells = test: Regression of established metastases, L3.6pl orthotopic mouse model; format: in vivo, nude mice; settings: treatment started three weeks after implantation; human v6 peptide or rat control peptide 20 μg i.p.
Experimental: In order to examine the regression of metastases (either BSp73ASs6 or L3.6pl) were implanted as described above. Tumor growth was allowed for three weeks. At that time all animals had developed metastases in the control group. Animals were injected i.p. with 20 μg (L3.6pl orthotopic mouse model: human v6 peptide or rat control peptide) or i.v. with 200 μg (rat syngeneic model: rat v6 peptide or mouse control peptide) of peptides three times per week. Animals were killed 23 days after the start of the peptide treatment.
The specific binding of the CD44v6 peptides to specific areas of the lungs in the rat system and of the liver in the human model raises the question whether these peptides might have an effect on already established metastases. In the experiments described in FIGS. 2 and 4 the peptides were applied early after injection of the tumor cells and repressed completely the establishment of metastases. In order to measure the effect of the CD44v6 peptide on already established metastases, other experimental settings were used. […] At the end of the experiments metastases could be detected in all animals treated with the control peptide (Table 3, FIG. 6B for the BSp73ASs6 cells, Table 3, FIG. 6C for L3.6pl cells) whereas animals treated with the species-specific CD44v6 peptides were free of metastasis. […]

ErbB receptors = test: ErbB ligand induced Erk-kinase phosphorylation in HT29 cells; format: cell-based, human; settings: HT29, 100 ng/ml peptide 5 min, 20 ng/ml ligand
Experimental: FIG. 15: In contrast to EGF and ER, induction of the ErbB-receptors via TGF-α, BC, Her, HB-EGF or AR is completely independent of CD44v6. Serum-starved HT29 cells were pre-incubated for 5 min with 100 ng/ml of a CD44v6-specific peptide (human v6 14mer) or a control peptide. Afterwards the cells were induced with 20 ng/ml of various ErbB ligands as indicated. The cell lysates were resolved by SDS-PAGE. Western-blotting was used to detect ErbB ligands-induced Erk-kinase phopshorylation.
For this purpose HT29 cells were serum-starved for 24 hours and pre-treated with the v6-specific or a control peptide. They were then induced with the indicated ErbB ligands. Erk-kinase phosphorylation was used as a read-out for receptor activation. All ligands could activate the Erk-kinase. […] These ligands are independent of CD44v6 for their induction of the ErbB receptors. This is especially striking, since EGF and TGF-α address the same receptor pairs (ErbB1/1 or ErbB1/2).

APC/Min/+ mice = test: APC/Min/+ mouse model, tumors in the duodenum; format: in vivo
Experimental: The effect of the v6 14mer was tested in the APC/Min/+ model model using 18 week old mice. The animals received an i.p. injection of 20 μg of v6 14mer (mouse 14mer) or control peptide (rat 14mer) three times per week for 6 weeks. Animals (three per group) were sacrificed at the end of the experiment and the duodenum was analyzed for the total number of tumors (FIG. 25).

4T1 cells = test: Syngeneic orthotopic 4T1 mammary carcinoma model in BALB/c mice; format: in vivo
Experimental: FIG. 26: Treatment with the v6 14mer reduces growth of the primary tumor and macroscopic metastases formation in the lung. 1×10^6 murine 4T1 cells per mouse were diluted in 50 μl RPMI plus 50 μl Matrigel and injected into the 6th mammary fat pad of 10 female BALB/c mice. One week after the injection, the mice were either injected intraperitoneally with 20 μg of the murine v6 14mer dissolved in 100 μl PBS or with 20 μg of control peptide (rat v6 14mer) dissolved in 100 μl PBS. The injection was performed 3 times per week for two weeks. After 2 weeks the mice were sacrificed and the primary tumors and the lungs were extracted. A: Overall reduction of the tumor volume in the v6 peptide treated group. B: Immunofluorescent staining for the endothelial marker CD34 to monitor vascularization of the primary tumor. Graphic representation of the reduction of the total vessel area. C: The v6 peptides led to a reduction in macroscopic lung metastasis. The black arrows mark examples for metastases. The scale bar corresponds to a size of 1 cm. Statistical evaluation of the average number of lung metastases. Significance was calculated using Student's t test: p*<0.01; **p<0.005. Each group consisted of 5 animals.
The effect of the CD44v6 14mer was tested in a syngeneic mouse model by orthotopic injection of the murine mammary carcinoma cells 4T1. 4T1 cells were originally derived from a spontaneously arising BALB/c mammary tumor. When introduced orthotopically, 4T1 cells grow rapidly at the primary site and form metastases in the lung and the lymph nodes within a period of 3-6 weeks. The tumor growth and metastatic spreading of 4T1 cells in BALB/c mice very closely mimics human breast cancer stage IV.
The 4T1 cells were injected orthotopically into the 6th mammary fat pad. Two groups of 5 animals each with the implanted tumor cells were then used for the experiment. One group was treated with the v6 14mer peptide, one with a control (rat) peptide. The injection of the peptide was performed 3 times per week and planned for three to four weeks but had to be stopped after two weeks as the control group suffered from large tumors.

[1] = murine v6 14mer 20 μg i.p. 3 times per week for two weeks

## KEQWFGNRWHEGYR [human 14mer, human CD44v6 14mer peptide]
Met and ERK
  Phosphorylation of Met and ERK: inhibited
L3.6pl cells
  presence of already established (liver) metastases after treatment: eliminate already established metastases
ErbB receptors
  AR, BC, HB-EGF and TGF-α-induced activation of the ErbB receptors: could not be inhibited
  EGF- and ER-dependent Erk phosphorylation: inhibited
APC/Min/+ mice; i.p. injection for 6 weeks (FIG. 25)
  number of tumors in the duodenum: reduces the number of tumors in the duodenum
APC/Min/+ mice; mouse 14mer 20 μg i.p. three times per week for 6 weeks
  decrease according to the size of the tumor: more pronounced in case of small tumors (0-1 mm>1-2 mm>2-5 mm)
APC/Min/+ mice; mouse 14mer 20 μg i.p. three times per week for 6 weeks, 18 week old mice, preliminary data
  tumor size in the duodenum: strong decrease of the tumor size in the duodenum
APC/Min/+ mice; mouse 14mer 20 μg i.p. three times per week for 6 weeks, versus control peptide
  tumor number for tumors bigger than 5 mm: higher
4T1 cells; 20 μg i.p. 3 times per week for two weeks, 5 animals per group
  macroscopic lung metastases per animal: three animals showed no macroscopic metastases at all, whereas two animals had only one metastase
4T1 cells; [1]
  primary tumor size: significant decrease of tumor size
  total number of blood vessels (anti-CD34 staining): significantly reduced
